Test results as given in patent publication US20100173874A1, “Delivery of modulators of glutamate-mediated neurotransmission to the inner ear” (priority 2002, published 2010).
“Also recorded” adds a separate entry of the source.

How the values were obtained:
auditory nerve fibers = assay: Single unit recording of auditory nerve fibers during intracochlear perfusion (salicylate-induced excitation); type: in vivo, guinea pig
Experimental: (§1) Experiments were performed on adult guinea pigs weighing from about 250 g to 300 g. The animals were anaesthetized with urethane (1.4 g/kg, i.p.) and artificially respired. Supplemental doses of urethane (0.35 g/kg, i.p.) were administered every 2 hr, or more often if the animal withdrew its paw in response to pressure applied to the paw. The rectal temperature was maintained at about 38.5±1° C., and heart rate (normal range 260-330 beats/min) monitored using EKG electrodes. The external auditory canal was opened near the tympanic annulus, exposing the tympanic membrane and allowing sound to reach the drum without any obstruction. At the end of the experiment, the animals were euthanized by intracardiac injection of an overdose of sodium pentobarbitone.
Salicylate Tinnitus Model. Salicylate, the active component of aspirin, is of special concern in auditory science because it induces tinnitus in humans. The efficacy of agents to treat tinnitus was tested by measuring firing rate of the auditory nerve fibers in presence of salicylate.
Briefly, the test solutions were applied into the cochlea using a multi-barrel perfusion pipette (ASI Instruments) placed into a hole made in the basal turn scala tympani and allowed to flow out of the cochlea through a hole (0.2 mm diameter) made at the apex. The cochlear nerve was exposed using a posterior fossa approach. Extracellular action potentials from single auditory nerve fibers were recorded with glass microelectrodes. Once a single unit was isolated, spontaneous activity was averaged over 10 seconds. The unit's tuning curves were then determined by a computer-controlled, threshold-tracking program using a 200 ms tone burst presented at 3/s. The threshold criterion was a difference of 10 spikes/s, i.e., 2 spikes difference between the tone (200 ms) and non-tone (200 ms) counting intervals. The program determined the characteristic frequency (CF) and the frequency tuning of the fiber by measuring the Q10dB defined as the CF divided by the bandwidth at 10 dB above the CF threshold.
An experiment was carried out to determine the ability of perfused Glutamate antagonists to suppress salicylate-induced excitation.

rats [1] = assay: Behavioral model of salicylate-induced tinnitus (active avoidance task)
Experimental: To verify that the excitatory action of sodium-salicylate on the auditory nerve fibers results in perception of tinnitus, a behavioral model was designed in rats based upon an active avoidance task. Animals were trained to respond to a conditioned stimulus consisting of a 10 kHz tone burst of 3 s duration.
(§2) CAP threshold shifts were calculated as the difference in dB between the auditory threshold at day 0 and the auditory threshold at each day. To avoid changes due to hearing loss, the intensity of sound eliciting behavioral responses was adjusted as a function of CAP threshold shift.
Gelfoam placed on the round window was used to apply drugs into the fluid of the cochlea.
To support the hypothesis that salicylate induced false positive via cochlear NMDA receptors, we applied other NMDA antagonists into the perilymphatic fluids using gelfoam placed on the round window of both ears.

guinea pigs = settings: intracochlear perfusion; cited from earlier work
radial dendrites = settings: intracochlear perfusion ten minutes prior to or concomitant with AMPA perfusion; cited from earlier work
cochlea [2] = assay: CAP amplitude after acute intracochlear perfusion; type: in vivo, guinea pig; settings: 8 kHz tone burst stimulation, mean of 5 animals
Experimental: as §1

cochlea [3] = assay: CAP amplitude after chronic round window perfusion; type: in vivo, guinea pig; settings: 8 kHz tone burst stimulation, mean of 5 animals
Experimental: as §1

inner ear = settings: acute cochlear perfusion; Wang et al., Neuroscience 2002; cited from earlier work
rats [4] = settings: 300 mg/kg/day i.p. during 4 days; frequency range 2 to 26 KHz
Experimental: CAP thresholds were measured using an electrode chronically implanted on round window in response to a tone burst of 1 ms rise/fall time and 9 ms duration presented at a rate of 10 times per second.
as §2

[5] = intracochlear perfusion, 50 μM, 5 mM NaSal
[6] = 300 mg/kg/day i.p., daily during 4 days

In the case of Dizocilpine [MK 801], the “neural excitation of auditory nerve induced by sodium-salicylate” value (shortened to “neural excitation”) (auditory nerve fibers; intracochlear perfusion, 10 μM) is reported as “suppressed neural excitation induced by sodium-salicylate”, the “spontaneous activity of the auditory nerve fiber” value (“spontaneous activity” for short) (auditory nerve fibers; intracochlear perfusion, 10 μM) is reported as “had no effect on spontaneous activity” and the “score under salicylate treatment” value (rats [1]; 10 μM, gelfoam on the round window) is reported as “reduction of the score still been unchanged”. For the same compound, the “number of false positive responses induced by salicylate” value (rats [1]; 10 μM, gelfoam on the round window, day 4 of salicylate treatment, n=10) was “drastically reduced the occurrence of the false positive responses”.

In the case of O=C(O)c1cc(=O)c2ccccc2[nH]1 [kynurenate], the “protection against sound-induced synaptic damage” value (guinea pigs) is given as “protects against sound-induced synaptic damage”.

With CNC(=O)N1N=C(c2ccc(N)cc2)c2cc3c(cc2C[C@H]1C)OCO3 [GYKI 53784] the “auditory nerve fiber activity evoked by sound” value (auditory nerve fibers; intracochlear perfusion, 50 μM) was “blocked both spontaneous activity and those evoked induced by sodium-salicylate or sound”, the “spontaneous activity” value (auditory nerve fibers; intracochlear perfusion, 50 μM) was “blocked both the spontaneous and the evoked activity” and the “neural excitation” value (auditory nerve fibers; [5]) was “blocked both the spontaneous and the evoked activity”.

In the case of O=c1[nH]c2cc([N+](=O)[O-])c([N+](=O)[O-])cc2[nH]c1=O [DNQX, 6-7-dinitorquinoxaline-2,3-dione], the radial dendrite swelling (radial dendrites) is listed as “prevented most of the occurrence of radial dendrite swelling”.

For CC1CCCCC1(c1cccs1)N1CCCCC1 (stereo not shown) [gacyclidine, Gacyclidine], the “spontaneous activity” value (auditory nerve fibers; intracochlear perfusion, 50 μM) was “had no effect on spontaneous activity; also recorded: not the spontaneous activity of the fiber”, the “neural excitation” value (auditory nerve fibers; [5]) was “suppressed neural excitation induced by sodium-salicylate; also recorded: suppressed neural excitation of auditory nerve induced by Na Salicylate” and the “score under salicylate treatment” value (rats [1]; 50 μM, gelfoam on the round window) was “reduction of the score still been unchanged”.

For Nc1nc2ccc(OC(F)(F)F)cc2s1 [Riluzole], the “mean amplitude of the CAP” value (cochlea [2]) is given as “reduce the CAP amplitude in a dose-dependent manner”, the “mean amplitude of the CAP” value (cochlea [3]) is given as “reduced the CAP amplitude in the dose dependent manner” and the “hearing after noise induced hearing loss” value (inner ear) is given as “rescues hearing after noise induced hearing loss”.

For O=C([O-])c1ccccc1O.[Na+] [sodium-salicylate], the “spontaneous firing of the auditory nerve fibers” value (auditory nerve fibers; intracochlear application, 5 mM) was “reversibly increased spontaneous firing of the auditory nerve fibers”, the “number of false positives (responses without sound)” value (rats [1]; [6]) was “drastic increase of the number of false positives” and the “score (positive responses to sound, % of total)” value (rats [1]; [6]) was “reversible reduction of the score”. The “score (positive responses to sound)” value (rats [1]; salicylate days 2 to 5, sound intensity adjusted as a function of CAP threshold shift) was “no significant decrease in the score was observed”, the false positive responses (rats [1]; salicylate treatment, sound intensity adjusted as a function of CAP threshold shift) was “false positive responses still remained” and the “hearing loss (CAP threshold)” value (rats [4]) was 30 dB.

For COc1ccc2c(c1)c(CC(=O)O)c(C)n2C(=O)c1ccc(Cl)cc1 [indomethacin], the “spontaneous activity” value (auditory nerve fibers; intracochlear perfusion, 100 μM in artificial perilymph, fiber coding for 8 kHz) was “did not change the spontaneous activity of the auditory nerve fiber”.
